The values below come from ChEMBL document CHEMBL3351616, “Synthesis and evaluation of novel benzophenone-thiazole derivatives as potent VEGF-A inhibitors” (Eur J Med Chem, 2014).

Activity calls are given as the source filed them. The rule behind the calls is not given here.

Series [1] in a line: Cytotoxicity against mouse DLA cells after 48 hrs by LDH release assay. In kind it is functional, cell-based.
Series [2] in a line: Cytotoxicity against mouse DLA cells after 48 hrs by MTT method. In kind it is functional, cell-based.
The nature of series [3]: Cytotoxicity against mouse EAC cells after 48 hrs by LDH release assay. The class given is functional, cell-based. To be noted: Ehrlich.
Series [4] can be described thus: Cytotoxicity against mouse EAC cells after 48 hrs by MTT method. The class given is functional, cell-based. The conditions noted are these: Ehrlich.
Series [5] in a line: Cytotoxicity against mouse DLA cells after 48 hrs by trypan blue dye exclusion method. The class given is functional, cell-based.
Series [6] in a line: Cytotoxicity against mouse EAC cells after 48 hrs by trypan blue dye exclusion method. In kind it is functional, cell-based. The conditions noted are these: Ehrlich.
Series [7] concerns Mus musculus. The series is described as follows: Toxicity in Swiss albino mouse assessed as change in WBC at 50 mg/kg, ip consecutively for 10 days (reference value: […]). The conditions noted are these: in vivo, 240 h. Further details: dose 50 mg/kg, route intraperitoneal. In kind it is organism-based.
The test system of series [8] is Mus musculus. The series is described as follows: Toxicity in Swiss albino mouse assessed as change in urea level at 50 mg/kg, ip consecutively for 10 days (reference value: 51 +/- 2.6 mg/dl). In kind it is organism-based. Further details: dose 50 mg/kg, route intraperitoneal. To be noted: in vivo, 240 h.
In series [9] the test system is Ehrlich. The series is described as follows: Antitumor activity against mouse EAC cells allografted in mouse assessed as reduction in VEGF-A mRNA expression in tumor cells at 50 mg/kg, ip as 3 doses on day 4,6 and 8 after tumor onset by RT-PCR analysis. In kind it is functional, organism-based. Further details: dose 50 mg/kg.
The test system of series [10] is Ehrlich. In words: Antitumor activity against mouse EAC cells allografted in mouse assessed as zone of avascularization in peritoneum at 50 mg/kg, ip as 3 doses on day 4,6 and 8 after tumor onset measured on day 10. Further details: dose 50 mg/kg. The class given is functional, organism-based.
The test system of series [11] is Mus musculus. In words: Toxicity in Swiss albino mouse assessed as change in RBC at 50 mg/kg, ip consecutively for 10 days (reference value: 4.75 +/- 2.1 x 10^6 /uL). The class given is organism-based. Also on record: dose 50 mg/kg, route intraperitoneal. To be noted: in vivo, 240 h.
Series [12] can be described thus: Antitumor activity against mouse EAC cells allografted in mouse assessed as increase in lifespan at 50 mg/kg, ip as 3 doses on day 4,6 and 8 after tumor onset measured on day 10 (reference value: 10 days). The conditions noted are these: route intraperitoneal. The class given is functional, Ehrlich.
A short description of series [13]: Antitumor activity against mouse EAC cells allografted in mouse assessed as reduction in VEGF-A protein secretion in tumor cells at 50 mg/kg, ip as 3 doses on day 4,6 and 8 after tumor onset by ELISA relative to control. The class given is functional, Ehrlich. To be noted: route intraperitoneal.
Series [14] concerns Ehrlich. The series is described as follows: Antitumor activity against mouse EAC cells allografted in mouse assessed as reduction in VEGF-A protein expression in tumor cells at 50 mg/kg, ip as 3 doses on day 4,6 and 8 after tumor onset by immunoblot method relative to control. Also on record: dose 50 mg/kg. The class given is functional, organism-based.
Series [15] deals with Mus musculus. In words: Toxicity in Swiss albino mouse assessed as change in creatinine level at 50 mg/kg, ip consecutively for 10 days (reference value: 0.46 +/- 1.8 mg/dl). The class given is organism-based. Further details: dose 50 mg/kg, route intraperitoneal. The conditions noted are these: in vivo, 240 h.
The subject of series [16] is Mus musculus. In words: Toxicity in Swiss albino mouse assessed as change in alkaline phosphatase level at 50 mg/kg, ip consecutively for 10 days (reference value: 124.98 +/- 1.2 IU/L). To be noted: in vivo, 240 h. In kind it is organism-based. Also on record: dose 50 mg/kg, route intraperitoneal.
For series [17], the system named is Ehrlich. In words: Antitumor activity against mouse EAC cells allografted in mouse assessed as decrease in reduction in tumor volume at 50 mg/kg, ip as 3 doses on day 4,6 and 8 after tumor onset measured on day 10. The class given is functional, organism-based. Further details: dose 50 mg/kg.
Series [18] deals with Ehrlich. In words: Antitumor activity against mouse EAC cells allografted in mouse assessed as decrease in ascites fluid secretion at 50 mg/kg, ip as 3 doses on day 4,6 and 8 after tumor onset measured on day 10. The class given is functional, organism-based. Further details: dose 50 mg/kg.
For series [19], the system named is Ehrlich. In words: Antitumor activity against mouse EAC cells allografted in mouse assessed as decrease in reduction in cell count at 50 mg/kg, ip as 3 doses on day 4,6 and 8 after tumor onset measured on day 10. Further details: dose 50 mg/kg. The class given is functional, organism-based.
The test system of series [20] is Ehrlich. The series is described as follows: Reduction in VEGF-A protein secretion in culture media of mouse EAC cells by ELISA. In kind it is functional, cell-based.

`Cc1cc(C(=O)c2ccc(F)cc2)ccc1OCC(=O)Nc1nc(-c2ccccc2)cs1`: the IC50 came out at 34.7 µM in [1]; 33.3 µM in series [2]; 38.6 µM in series [3]; 37.4 µM in series [4]; 32.1 µM in [5]; 35.2 µM in [6].

For `COc1ccc(-c2csc(NC(=O)COc3ccc(C(=O)c4ccc(F)cc4)cc3C)n2)cc1`, the Activity with Mus musculus [7] is 3.89 ×10⁶ /uL; with Mus musculus [8] it was 48 mg/dL; in the series with Mus musculus [11], 5.13 ×10⁶ /uL; with Mus musculus [15], 0.44 mg/dL; with Mus musculus [16], 129 IU/L; with Ehrlich [17] it was “Dose-dependent effect”. In addition, the Activity entry with Ehrlich [18], in the series on Ehrlich [19] and in the series on Ehrlich [20] was “Dose-dependent effect” each time. Further, the IC50 is 5.5 µM in series [1]; 5.4 µM in series [2]; 5.8 µM in series [3]; 5.4 µM in [4]; 5 µM in [5]; 5.2 µM in series [6]. Further, the result with Ehrlich [9], in the series with Ehrlich [10] and in the series with Ehrlich [14] was Active. Further, in series [12], the Survival worked out at 34 days. Further, the “fold change (FC)” value in series [13] stood at 5.

On to `COc1ccc(-c2csc(NC(=O)COc3ccc(C(=O)c4cccc(Br)c4)cc3C)n2)cc1`, for which the IC50 was 37.1 µM in [1]; 36.6 µM in series [2]; 40.6 µM in series [3]; 39.2 µM in [4]; 35.4 µM in series [5]; 38.1 µM in series [6].

Take `Cc1cc(C(=O)c2ccccc2)ccc1OCC(=O)Nc1nc(-c2ccccc2)cs1`: the IC50 in series [1] came to 23 µM; in series [2] it was 22.3 µM; in series [3] it was 24.5 µM; in series [4] it was 24 µM; in [5], 21.5 µM; in series [6], 22.3 µM.

As for `COc1ccc(-c2csc(NC(=O)COc3ccc(C(=O)c4ccccc4)cc3C)n2)cc1`, the IC50 in series [1] amounted to 26.2 µM; in [2] it was 25.7 µM; in [3] it was 28.6 µM; in [4] it was 28.4 µM; in series [5], 24.2 µM; in [6] it was 27.1 µM.

For the compound `Cc1cc(C(=O)c2cccc(Br)c2)ccc1OCC(=O)Nc1nc(-c2ccccc2)cs1`, the IC50 came to 23.6 µM in series [1]; 23.8 µM in series [2]; 25.9 µM in series [3]; 24.4 µM in [4]; 21.7 µM in series [5]; 24.3 µM in series [6].

On to `Cc1ccc(C(=O)c2ccc(OCC(=O)Nc3nc(-c4ccccc4)cs3)c(C)c2)cc1`, for which the IC50 worked out at 27.1 µM in series [1]; 26.4 µM in [2]; 30.5 µM in series [3]; 29.9 µM in [4]; 25 µM in [5]; 28.4 µM in series [6].

As to `COc1ccc(-c2csc(NC(=O)COc3ccc(C(=O)c4ccc(C)cc4)cc3C)n2)cc1`, the IC50 in [1] was 18.7 µM; in [2], 17.2 µM; in [3], 20.9 µM; in series [4], 20.7 µM; in series [5], 16 µM; in [6] it was 19.4 µM.

As for `Cc1cc(C(=O)c2ccccc2)cc(C)c1OCC(=O)Nc1nc(-c2ccccc2)cs1`, the half-maximal inhibitory concentration (IC50) in series [1] stood at 19.9 µM; in series [2] it was 19.4 µM; in series [3] it was 23.4 µM; in series [4], 22.7 µM; in [5] it was 19.1 µM; in series [6] it was 22.1 µM.

With `Cc1cc(C(=O)c2ccccc2C)ccc1OCC(=O)Nc1nc(-c2ccccc2)cs1`, the IC50 was determined as 23.7 µM in [1]; 23.1 µM in series [2]; 26.4 µM in [3]; 25.8 µM in series [4]; 22.2 µM in series [5]; 24.3 µM in series [6].

As for `Cc1cc(C(=O)c2ccccc2F)ccc1OCC(=O)Nc1nc(-c2ccccc2)cs1`, the IC50 in [1] is 15.6 µM; in series [2], 14.8 µM; in [3] it was 16.9 µM; in series [4], 16.7 µM; in series [5], 13.7 µM; in series [6], 15.4 µM.

In the case of `O=c1[nH]cc(F)c(=O)[nH]1` [FLUOROURACIL], the IC50 in series [1] was found to be 16.8 µM; in series [2], 15.6 µM; in [3] it was 15.4 µM; in series [5] it was 15.3 µM; in series [6], 14.6 µM.

In the case of `O=C(COc1ccc(C(=O)c2ccccc2)cc1Br)Nc1nc(-c2ccccc2)cs1`, the IC50 in [1] is 43.5 µM; in [2], 43.1 µM; in series [3], 46.4 µM; in [4], 46 µM; in series [5], 42 µM; in [6], 45.8 µM.

Take `COc1ccc(-c2csc(NC(=O)COc3ccc(C(=O)c4cccc(F)c4)cc3C)n2)cc1`: the IC50 in [1] stood at 30.3 µM; in series [2], 28.4 µM; in [3], 30.9 µM; in series [4], 30.7 µM; in series [5] it was 27.8 µM; in [6], 29.5 µM.

On to `COc1ccc(-c2csc(NC(=O)COc3c(C)cc(C(=O)c4ccccc4)cc3C)n2)cc1`, for which the IC50 in series [1] was determined as 40.1 µM; in series [2], 39.4 µM; in [3], 41.5 µM; in [4], 41.2 µM; in [5], 38.4 µM; in series [6], 40.6 µM.
